Test results published in PMC9166630, “SAR Probing of KX2-391 Provided Analogues With Juxtaposed Activity Profile Against Major Oncogenic Kinases” (Frontiers in Oncology, 2022).

Key:
[1] = tested on: MCF7 (breast) cancer cells; assay: SRB cytotoxicity assay, MCF7; format: cell-based, human; settings: Homo sapiens, MCF7, 72 h, maximum tested concentration 50 µM, read-out: IC50 ± SEM, MCF7
Procedure: MCF7 (breast) or N87 (stomach) cancer cells were grown in Roswell Park Memorial Institute-1640 (RPMI-1640) medium (Thermo Fisher Scientific, Inc; Waltham, MA, USA), supplemented with 10% heat inactivated fetal bovine serum (FBS), 50 units/mL of penicillin and […] of streptomycin and maintained at 37°C in a humidified atmosphere containing 5% CO2. The cells were maintained as “monolayer culture” by serial subculturing.
Cytotoxicity was determined using Sulforhodamine B (SRB) method as previously described by Skehan et al. ([66]). Exponentially growing MCF7 and N87 cells were collected using 0.25% Trypsin-EDTA and were then seeded in 96-well plates at a density of 1000-2000 cells/well in 10% FBS and penicillin/streptomycin supplemented RPMI-1640 medium. After 24 h, cells were treated with different concentrations of test compounds and incubated for 72 h at 37°C in a humidified atmosphere containing 5% CO2. Next, the cells were fixed by adding trichloroacetic acid (TCA, 10% final conc. in wells) directly to the wells and incubated for 1 h at 4°C, then cells were washed with distilled water 5 times to remove excess TCA, media, serum proteins, and metabolites, followed by air drying. After that, the fixed cells were stained with 0.4% SRB dissolved in 1% acetic acid for 10 min at room temperature, and excess stain was removed by quickly rinsing with 1% acetic acid. The residual acetic acid was removed completely by air drying the plates for 24 h, and the dye was solubilized with Tris buffer (pH= 7.4, 10 mM) for 5 min on a shaker at 1600 rpm. The optical density (OD) of each well was measured spectrophotometrically at 564 nm with an ELISA microplate reader (ChroMate-4300, FL, USA). The IC50 values (concentration of drug resulting in 50% reduction in cell survival) were calculated according to the equation for Boltzman sigmoidal concentration–response curve using the nonlinear regression fitting models (Graph Pad, Prism Version 5).

HCT116 cell line = assay: MTT anti-proliferative assay, HCT116; format: cell-based, human; settings: Homo sapiens, HCT-116, 72 h, maximum tested concentration 50 µM, read-out: IC50 ± SEM, HCT116
Procedure: The test compounds were evaluated for anti-proliferative activity using the MTT viability assay against HCT116 cell line. Cells were seeded in triplicate in 96-well plates at a density of 10x 10^3 cells/mL in a total volume of 200 µL per well. 0.1% of DMSO was used as a vehicle control. Each well was treated with 2 µL test compounds, which had been pre-prepared as stock solutions in […] to furnish the concentration range of study, 0.1 µM to 50 µM, and re-incubated for a further 72 h at 37°C in a humidified atmosphere containing 5% CO2. The culture medium was then removed, and the cells were washed with 100 µL PBS and 100 µL MTT was added, to reach a final concentration of 1 mg/mL MTT. Cells were incubated for 3 h in darkness at 37°C. After that, MTT solution was removed and MTT was solubilized by adding […] DMSO. The cells were maintained at room temperature in darkness for 20 min to ensure thorough color diffusion before reading the absorbance using a microplate reader at 570 nm. All experiments were conducted in triplicates. Results were expressed as percentage viability relative to vehicle control (100%). Dose response curves were plotted and IC50 values (concentration of drug resulting in 50% reduction in cell survival) were obtained using the commercial software package Prism (GraphPad Software, Inc., La Jolla, CA, USA).

[2] = Stability in mouse liver microsomes; format: in vitro ADME; settings: for half-life: male, CD-1, mouse liver microsomes with NADPH, 37°C, read-out: Stability MLM t1/2; for Mic. Ctrl. Mouse % 60 min: mouse liver microsomes, no NADPH added
Procedure: Both mouse and human liver microsomes were obtained from Merck KGaA, (Darmstadt, Germany), Cat. No. M9441 (Mouse liver microsomes) and M0317 (Human liver microsomes). Assays were conducted in triplicate in 96-deep well polypropylene plates. […] At five time points, reaction mixture aliquots were transferred to 96-shallow well stop plates on ice containing acetonitrile with 0.1 µM propafenone. […] Standard curves for test compound were generated using 5 concentrations in triplicate that were processed as above but with zero incubation time. Stop plates were centrifuged at 2000 g for 10 min and then supernatant aliquots were transferred to a Waters Aquity® UPLC 700 µL 96-well sample plate with cap mat (Waters, Milford, MA). The amount of compound remaining in the supernatant was quantified by LC/MS/MS using a Waters Xevo TQ MS (electrospray positive mode) coupled to a Waters Aquity® UPLC (BEH column, C18). Propafenone was used as the internal standard. GraphPad® Prism v 5.04 was used for nonlinear fitting of time course data to generate t1/2 values.

CYP2C9 = molecular target: T1, CYP2C9 (Homo sapiens, UniProt P11712); assay: Inhibition assay of human CYP450 enzymes, 2C9; format: in vitro ADME; settings: for IC50: fluorescent substrate; for no inhibition of CYP2C9 at concentrations up to: the values are: IC50
T1 construct: purchased Fisher Scientific; host or cells: insect cells (supersomes)
Procedure: The two compounds 4e and 4n were assessed for their ability to inhibit the three major human CYP450 enzymes, 3A4, 2D6 and 2C9. Assays were run in triplicate. Expressed enzymes in insect supersomes (Fisher Scientific, Waltham, MA) were used to minimize non-specific binding and membrane partitioning issues ([68]). The 3A4 assay uses testosterone as a substrate and analysis was performed by LC/MS/MS on a Waters Xevo TQ instrument as described above using positive electrospray ionization. Assay acceptance criteria was 20% for all standards and 25% for the LLOQ. The 2D6 and 2C9 assays use fluorescent substrates (3-[2-(N,N-diethylamino)ethyl]-7-methoxy-4-methylcoumarin for 2D6; 7-methoxy-4-(trifluoromethyl)coumarin for 2C9) and were analyzed on an Envision plate reader. GraphPad® Prism v 5.04 was used for nonlinear fitting of data to generate IC50 values.

[3] = Stability in mouse plasma; format: in vitro ADME; settings: CD-1, mouse, pH 7.4, 37°C, read-out: Mouse Plasma Stability t1/2
Procedure: The assay was conducted at 37°C in triplicate. Test compounds or procaine (positive control) were tested at a final concentration of 1 µM in either 2.5% DMSO/CD-1 mouse plasma (Innovative Research, Novi, MI; sodium heparin added as anticoagulant; pH adjusted to 7.4 with 2N HCl on day of use) or 2.5% DMSO/PBS (pH 7.4: 136.9 mM NaCl, 2.68 mM KCl, 8.1 mM Na2HPO4, 1.47 mM KH2PO4, 0.9 mM CaCl2, 0.49 mM MgCl2). At seven time points, reaction mixture aliquots were transferred to 96-shallow well stop plates on ice containing acetonitrile with 0.1 µM propafenone. Samples were analyzed by LC/MS/MS on a Waters Xevo TQ instrument as described above using positive electrospray ionization. Assay acceptance criteria was 20% for all standards and 25% for the LLOQ. GraphPad® Prism v. 5.04 was used for nonlinear fitting of data to generate t1/2 values.

T1 sequence (P11712 whole entry): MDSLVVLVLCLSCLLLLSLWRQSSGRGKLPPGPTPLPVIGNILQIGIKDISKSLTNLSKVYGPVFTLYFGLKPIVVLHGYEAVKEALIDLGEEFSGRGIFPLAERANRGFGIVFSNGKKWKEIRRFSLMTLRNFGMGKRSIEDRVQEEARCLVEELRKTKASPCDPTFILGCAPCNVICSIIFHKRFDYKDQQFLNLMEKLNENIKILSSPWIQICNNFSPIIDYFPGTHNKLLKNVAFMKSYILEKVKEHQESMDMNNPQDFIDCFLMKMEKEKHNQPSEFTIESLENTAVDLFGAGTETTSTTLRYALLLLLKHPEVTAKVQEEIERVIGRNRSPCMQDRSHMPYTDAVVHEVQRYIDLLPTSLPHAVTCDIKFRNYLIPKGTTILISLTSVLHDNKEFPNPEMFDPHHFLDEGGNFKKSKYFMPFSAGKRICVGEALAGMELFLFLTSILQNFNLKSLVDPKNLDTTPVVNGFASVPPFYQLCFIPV

SMILES | IC50 [1] [µM] | IC50 (HCT116 cell line) [µM] | half-life [2] [min] | Mic. Ctrl. Mouse % 60 min [2] [%] | IC50 (CYP2C9) [µM] | no inhibition of CYP2C9 at concentrations up to (CYP2C9) [µM] | half-life at 1 µM [3] [min]
O=C(Cc1ccc(NC(=O)c2cccc(Cl)n2)cc1)NCc1ccccc1 [Compound 4n, N-(4-(2-(benzylamino)-2-oxoethyl)phenyl)-6-chloropicolinamide] | 0.25 | 10.8 | 3.1 | 5.0 | > 10 | > 10 | 178
O=C(Cc1ccc(NC(=O)c2cccc(Cl)c2)cc1)NCc1ccccc1 [Compound 4e, N-(4-(2-(benzylamino)-2-oxoethyl)phenyl)-3-chlorobenzamide] | 7.41 ± 2.8 | 16.8 ± 2.69 | > 60 | 73 | > 10 | > 10 | > 300
